From ChEMBL document CHEMBL3988442, “University of Dundee, Small-Polar-MMV Screening Library” (2021)

Target: ClpP1P2 (Mycobacterium tuberculosis (strain ATCC 25618 / H37Rv), UniProt P9WPC3+P9WPC5)
Assay: in vitro assay to detect presence of AMC directly proportional to the activity of ClpP1P2. GHDDI collaboration.
Type: functional

ClpP1P2, sequence (P9WPC5 whole entry): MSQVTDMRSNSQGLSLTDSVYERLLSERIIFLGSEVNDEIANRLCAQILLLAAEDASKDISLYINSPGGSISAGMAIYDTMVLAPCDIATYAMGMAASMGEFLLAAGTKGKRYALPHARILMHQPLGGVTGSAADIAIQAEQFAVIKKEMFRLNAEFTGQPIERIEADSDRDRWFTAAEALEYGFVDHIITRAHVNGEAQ
ClpP1P2, sequence (P9WPC3 whole entry): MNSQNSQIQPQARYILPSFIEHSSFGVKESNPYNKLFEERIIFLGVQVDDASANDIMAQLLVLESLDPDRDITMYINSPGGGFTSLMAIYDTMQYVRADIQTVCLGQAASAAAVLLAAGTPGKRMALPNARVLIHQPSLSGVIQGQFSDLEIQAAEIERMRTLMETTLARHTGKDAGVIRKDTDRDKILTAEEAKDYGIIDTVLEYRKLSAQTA

| SMILES | IC50 |
| --- | --- |
| CCCOc1ccc(CNc2cncc(-n3cccn3)n2)cc1 | > 100 µM |
| CCOCc1ccc(CNc2cncc(-n3cccn3)n2)cc1 | > 100 µM |
| CCN(CC)C(=O)c1ccc(CNc2cncc(-n3cccn3)n2)cc1 | > 100 µM |
| COCc1nc(C(=O)N2CCCC(n3nc(C)cc3C)C2)cs1 (stereo unspecified) | > 100 µM |
| Cc1nc(C)n(CC2CN(Cc3cccc4ccccc34)CCO2)n1 (stereo unspecified) | > 100 µM |
| CC(C)n1nc2c(cc1=O)CN(Cc1nc3ccccc3o1)CC2 | > 100 µM |
| CC(C(=O)N1CCCN(c2ccccc2C#N)CC1)n1cccn1 (stereo unspecified) | > 100 µM |
| CSc1nccn1-c1ccc(C(=O)NCC2CC2)cc1 | > 100 µM |
| Cc1cnn(CC2CN(Cc3csc(C4CCCC4)n3)CCO2)c1 (stereo unspecified) | > 100 µM |
| CN(CC(=O)N1CCC(COc2ccccc2)CC1)c1cnccn1 | > 100 µM |
| CCOC1CCN(C(=O)CN(C)c2cnccn2)CC1 | > 100 µM |
| CS(=O)(=O)NC1CCN(C(=O)NCc2ccccn2)CC1 | > 100 µM |
| Cn1c(CN2CCCC(Cn3cncn3)C2)nc2ccccc21 (stereo unspecified) | > 100 µM |
| CC1CN(CC(=O)NCc2ccccn2)CCN1Cc1nccn1C (stereo unspecified) | > 100 µM |
| c1ccc(Cc2nnc(CN3CCc4cncnc4C3)o2)cc1 | > 100 µM |
| Cc1ncc2c(n1)CN(Cc1nc(Cc3ccccc3)no1)CC2 | > 100 µM |
| CC(C)c1ncc2c(n1)CN(Cc1nnc(Cc3ccccc3)o1)CC2 | > 100 µM |
| CCc1ncc2c(n1)CN(Cc1nnc(Cc3ccccc3)o1)CC2 | > 100 µM |
| Cc1ccc(NC2CCN(C(=O)CCc3ccncc3)CC2)nn1 | > 100 µM |
| CN(C)c1cc(CNC(=O)Nc2ccc(N3CCCC3)nc2)ccn1 | > 100 µM |
| c1cc(-c2nc(CN3CCc4c(ncn4C4CC4)C3)cs2)cs1 | > 100 µM |
| O=C1CCc2cc(NC(=O)C3CCCN3c3nccs3)ccc2N1 (stereo unspecified) | > 100 µM |
| CN(C)c1cc(C(=O)N2CCN(c3cc(C#N)ccn3)CC2)ccn1 | > 100 µM |
| CN(Cc1noc(C2CC2)n1)C1CCN(Cc2ccccc2C#N)C1 (stereo unspecified) | > 100 µM |
| O=C(NCc1nn(-c2ccccc2)c2c1CCC2)NCC1COCCO1 (stereo unspecified) | > 100 µM |
| CN(C)C1CCN(C(=O)Cc2csc(-c3ncccn3)n2)CC1 | > 100 µM |

| SMILES | IC50 |
| --- | --- |
| N#Cc1cccnc1N1CCC(C2CCCCCN2C(=O)C2CC2)CC1 (stereo unspecified) | > 100 µM |
| CC(=O)N1CCCCCC1C1CCN(c2ncccc2C#N)CC1 (stereo unspecified) | > 100 µM |
| O=C(CCc1ccc(-c2ccccc2)[nH]1)N1CCCC(n2ccnc2)C1 (stereo unspecified) | > 100 µM |
| N#Cc1cccnc1N1CCC(C2CCCCCN2C(N)=O)CC1 (stereo unspecified) | > 100 µM |
| Cc1cnn(CCNCc2csc(-c3ccsc3)n2)c1 | > 100 µM |
| Cc1nc(-c2ccsc2)ccc1C(=O)NCC(C)N1CCOCC1 (stereo unspecified) | > 100 µM |
| Cc1nc(-c2ccsc2)ccc1C(=O)NCCCN1CCOCC1 | > 100 µM |
| CCNc1cc2c(nn1)CCN(C(=O)c1nccnc1N)C2 | > 100 µM |
| Cc1cccc(CN(C(=O)NCc2ccccn2)C2CC2)c1 | > 100 µM |
| CCc1nnc2n1CCN(C(=O)c1ccc(-c3ccco3)[nH]c1=O)C2 | > 100 µM |
| N#Cc1ccccc1N1CCCN(C(=O)CCc2ccsc2)CC1 | > 100 µM |
| Cc1ncc2c(n1)CN(CC(=O)Nc1ccc(Cl)cn1)CC2 | > 100 µM |
| Cc1cccc2nc(CN3CCCC3Cn3cccn3)cn12 (stereo unspecified) | > 100 µM |
| CCc1ncc2c(n1)CN(CC(=O)Nc1cccnc1)CC2 | > 100 µM |
| CCc1ncc2c(n1)CN(CC(=O)Nc1nncs1)CC2 | > 100 µM |
| CCc1ncc2c(n1)CN(C(C)C(=O)Nc1ccc(Cl)cn1)CC2 (stereo unspecified) | > 100 µM |
| CC(C)c1ncc2c(n1)CN(CC(=O)Nc1ccc(Cl)cn1)CC2 | > 100 µM |
| CCOc1cc(/C=C/c2ncc(C(=O)O)s2)cc(Br)c1OC | > 100 µM |
| Cn1cc(CCC(=O)N2CCCN(c3ncccc3C#N)CC2)cn1 | > 100 µM |
| N#Cc1cccnc1N1CCCN(C(=O)CCn2cccn2)CC1 | > 100 µM |
| N#Cc1cccnc1N1CCCN(C(=O)CCn2cncn2)CC1 | > 100 µM |
| Cc1nn(C)c(C)c1C1CCCN1C(=O)c1nccnc1N (stereo unspecified) | > 100 µM |
| CS(=O)(=O)CCNC(=O)c1ccc(-c2ccco2)[nH]c1=O | > 100 µM |
| O=C(NCCOC1CCCC1)c1ccc(-c2ccco2)[nH]c1=O | > 100 µM |
| O=C(NCCOC1CCCCC1)c1ccc(-c2ccco2)[nH]c1=O | > 100 µM |
| CC(C)(C)OC(=O)NCCNC(=O)c1ccc(-c2ccco2)[nH]c1=O | > 100 µM |

| SMILES | IC50 |
| --- | --- |
| O=C(NCC(F)(F)F)c1ccc(-c2ccco2)[nH]c1=O | > 100 µM |
| CC(C)c1nc(CN(C)C2CCN(CCc3ccncc3)C2)no1 (stereo unspecified) | > 100 µM |
| Cc1nc(CN2CCCN(C(=O)c3sccc3C#N)CC2)cs1 | > 100 µM |
| CCCn1[nH]cc/c1=N\C(=O)CN1CCc2c(nc(C3CC3)n2C)C1 | > 100 µM |
| Cc1nc(CN2CCN(C(=O)c3sccc3C)CC2)cs1 | > 100 µM |
| CN(Cc1cccc(C(N)=O)c1)CC1CCCN1c1cccnn1 (stereo unspecified) | > 100 µM |
| CCCn1[nH]cc/c1=N\C(=O)CN1CCc2cnc(C(C)C)nc2C1 | > 100 µM |
| CC(Cn1cccn1)NC(=O)NCc1ccoc1 (stereo unspecified) | > 100 µM |
| Cc1cc(CN2CCN(C(=O)c3sccc3C3CC3)CC2)no1 | > 100 µM |
| COc1ccc(C(=O)N(C)Cc2nnc3ccccn23)c(OC)c1OC | > 100 µM |
| Cc1ccc(CNC(=O)NC(C)Cn2cccn2)cn1 (stereo unspecified) | > 100 µM |
| Cc1ccoc1C(=O)NC1CCN(C(=O)Nc2ccccn2)CC1 | > 100 µM |
| Cc1nc(CN2CCOC(Cn3cccn3)C2)nc2ccccc12 (stereo unspecified) | > 100 µM |
| Nc1nc(CN2CCOC(Cn3cccn3)C2)nc2ccccc12 (stereo unspecified) | > 100 µM |
| CCn1ccnc1CN1CCN(CC(O)c2cccc(F)c2)CC1 (stereo unspecified) | > 100 µM |
| Cc1cnn(CC2CN(Cc3nc4ccccc4o3)CCO2)c1 (stereo unspecified) | > 100 µM |
| Cc1cnn(CC2CN(Cc3nc(C)c4ccccc4n3)CCO2)c1 (stereo unspecified) | > 100 µM |
| Cc1ccc(C(=O)NC2CCN(C(=O)NCc3ccccn3)CC2)o1 | > 100 µM |
| Cn1ccnc1CN1CCN(CC(O)c2cc(F)ccc2F)CC1 (stereo unspecified) | > 100 µM |
| CC(C)c1nc2c(n1C)CCN(CC(=O)Nc1cccnc1)C2 | > 100 µM |
| CC(C)Oc1ccc(C(=O)N2CCC(Nc3cccnn3)CC2)cn1 | > 100 µM |
| Cc1cnn(CC2CCCCN2C(=O)c2nccnc2N)c1 (stereo unspecified) | > 100 µM |
| Cc1cnn(CC2CCCN2C(=O)c2nccnc2N)c1 (stereo unspecified) | > 100 µM |
| Cc1cnn(CC2CN(Cc3nc4cccnc4[nH]3)CCO2)c1 (stereo unspecified) | > 100 µM |
| Cc1cnn(CC2CN(Cc3nc4ccccc4c(=O)[nH]3)CCO2)c1 (stereo unspecified) | > 100 µM |
| Cc1cc(C)n(CC2CCCN2C(=O)c2ccnc(N(C)C)c2)n1 (stereo unspecified) | > 100 µM |

| SMILES | IC50 |
| --- | --- |
| c1ccc(CCCN2CCOC(Cn3cccn3)C2)cc1 (stereo unspecified) | > 100 µM |
| COCCN1CC(C(=O)NCc2cccnc2-n2cccn2)CC1=O (stereo unspecified) | > 100 µM |
| O=C(NCCCn1cccn1)NCC(c1ccco1)N1CCCC1 (stereo unspecified) | > 100 µM |
| CCC(CNC(=O)Nc1cnn(CC)c1)N1CCc2ccccc2C1 (stereo unspecified) | > 100 µM |
| O=C(c1cc(F)ccc1F)C1CCN(C(=O)c2cnccn2)CC1 | > 100 µM |
| CCOC1CCN(C(=O)NCCc2ccn(-c3ccccc3)n2)CC1 | > 100 µM |
| CC(=O)N(Cc1ncc(C)o1)C1CCN(Cc2cc(C)on2)C1 (stereo unspecified) | > 100 µM |
| Cc1ccc(CN(CC(=O)N2CCOC(C)C2)C2CC2)cc1 (stereo unspecified) | > 100 µM |
| Cc1cnn(CC2CCCN2C(=O)CCc2ccncc2)c1 (stereo unspecified) | > 100 µM |
| CCCc1nc(CNCC2CCCN2c2cccnn2)no1 (stereo unspecified) | > 100 µM |
| CCn1c(C)nnc1CN(C)C1CCN(CCS(=O)(=O)CC)C1 (stereo unspecified) | > 100 µM |
| CC1CN(C(=O)CN(Cc2ccco2)Cc2cccs2)CCO1 (stereo unspecified) | > 100 µM |
| CC1CN(C(=O)CN(Cc2ccccc2)C2CC2)CCO1 (stereo unspecified) | > 100 µM |
| CCc1nc(C2CCCN(C(=O)CC3CCOCC3)C2)no1 (stereo unspecified) | > 100 µM |
| Cc1nc(C)n(CC2CCCN2CCC(=O)N2CCCCC2)n1 (stereo unspecified) | > 100 µM |
| Cc1nc(C)n(CC2CCCN(CC(=O)N3CCCC3)C2)n1 (stereo unspecified) | > 100 µM |
| CS(=O)(=O)NC1CCCN(C(=O)c2cccnc2)C1 (stereo unspecified) | > 100 µM |
| COc1ccnc(N2CCN(C(=O)Cc3ccsc3)CC2)n1 | > 100 µM |
| Cc1nnc(C2Cc3ccccc3CN2Cc2c(C)noc2C)o1 (stereo unspecified) | > 100 µM |
| CCn1cnnc1CNC(=O)N1CCN(Cc2ccco2)CC1 | > 100 µM |
| Cc1nc(C)n(CC2CCCN(CCC(=O)NC3CCCCC3)C2)n1 (stereo unspecified) | > 100 µM |
| CC(C)c1nn(C)c(N(C)C)c1CNCC(O)c1cccc(F)c1 (stereo unspecified) | > 100 µM |
| COCc1cccc(CNCc2c(C)nn(C)c2N2CCOCC2)c1 | > 100 µM |
| CC(C)c1nnc(CNC2CCCN(Cc3noc(C4CC4)n3)C2)o1 (stereo unspecified) | > 100 µM |
| O=C(NCCC(=O)N1CCCc2ccccc21)c1ccc(F)cc1F | > 100 µM |
| O=C(NCCC(=O)N1CCCc2ccccc21)c1c(F)cccc1F | > 100 µM |

| SMILES | IC50 |
| --- | --- |
| Cc1nc(CN(C)C2CCN(Cc3cccc4c3OCCO4)C2)no1 (stereo unspecified) | > 100 µM |
| COc1cc2ccccc2cc1C(=O)N1CCCC(c2nncn2C)C1 (stereo unspecified) | > 100 µM |
| CCc1nc(CN2CCCC(NCc3nc(C)c(C)o3)C2)no1 (stereo unspecified) | > 100 µM |
| Cc1oc(C)c(C(=O)N2CCN(Cc3cscn3)CC2)c1C | > 100 µM |
| Cc1nn(C)c(C)c1C1CCCN1C(=O)c1ccnc(N(C)C)c1 (stereo unspecified) | > 100 µM |
| CCc1nnc(CNC2CCCN(Cc3noc(C4CC4)n3)C2)o1 (stereo unspecified) | > 100 µM |
| Cc1nc(CN(C)C2CCN(Cc3ccc4c(c3)CCC4)C2)no1 (stereo unspecified) | > 100 µM |
| CN(Cc1nnc(-c2ccco2)o1)C1CCCN(c2cccnn2)C1 (stereo unspecified) | > 100 µM |
| c1cnnc(N2CCCC(NCc3nnc(-c4ccco4)o3)C2)c1 (stereo unspecified) | > 100 µM |
| Cc1ccc(S(=O)(=O)N2CCOc3ccccc32)cc1C(N)=O | > 100 µM |
| Cn1cnc2c1CCN(Cc1csc(-c3ccsc3)n1)C2 | > 100 µM |
| Cc1noc(C2CCN(C(=O)CCc3nccs3)CC2)n1 | > 100 µM |
| CCN(CC1CCOC1)C(=O)Nc1ccc(OC)nc1 (stereo unspecified) | > 100 µM |
| COc1cccc(-n2nnc(C(=O)N3CCN(C)CC3C)c2C)c1 (stereo unspecified) | > 100 µM |
| CCOc1ccc(Cl)c(C(=O)N(C)C)n1 | > 100 µM |
| Cc1cc(C)n(CC2CCCN2CCCS(N)(=O)=O)n1 (stereo unspecified) | > 100 µM |
| Cn1cc(CN2CCCN(C(=O)c3cn4ccccc4n3)CC2)cn1 | > 100 µM |
| CC(C)c1nnc2n1CCN(Cc1csc(CC(=O)N(C)C)n1)C2 | > 100 µM |
| Cc1cccc2c1OCCC2NCc1c(C)nn(C)c1N(C)C (stereo unspecified) | > 100 µM |
| CCCn1[nH]cc/c1=N\C(=O)CN1CCn2c(nnc2C2CC2)C1 | > 100 µM |
| CCN(Cc1nc2c(cnn2C)c(=O)[nH]1)Cc1cccs1 | > 100 µM |
| Cc1cc(NC(=O)CN2CCn3c(nnc3C(C)C)C2)no1 | > 100 µM |
